Data set [1] in a line: Pharmacokinetics of DPB after oral DPB or NaDPB and IV NaDPB in Sprague-Dawley rats. It is filed as in vivo. The following applies: rat, in vivo, oral 150 mg/kg; for AUC(0-t): Sprague-Dawley, po, 150 mg/kg. How it is done:
(§1) In accordance with the present invention, pharmacokinetic parameters were calculated using standard non-compartmental methods, as implemented in WinNonlin™ 4.0.1. […] The mean, SD and CV (%) were used to calculate the AUC0-t (μg·h/mL), C. (μg/ml) (the maximum observed concentration), Tmax (hours) (the time to reach that peak concentration) and Kel (the elimination rate constant) for each animal and each analyte.
(§2) AUC0-t was calculated using the linear trapezoidal rule, which employs an approximate integration formula. The area of each trapezoid was calculated, and the sum of all the areas of all the trapezoids yielded an estimate of the true area under the curve. (See, Gibaldi et al. Pharmacokinetics. 2nd Ed. Marcel Dekker, Inc., 1982; Yeh et al., A comparison of numerical integrating algorithms by trapezoidal, lagrange, and spline approximations. J. Pharmacokinet Biopharm. 6: 79 (1978), the disclosure of which is herein incorporated by reference.) Cmax and Tmax were then determined for each concentration vs. time profile. Elimination rate constant (Kel) was calculated using regression analyses on the natural log (ln) of plasma concentration values (y) versus time (x).
We examined the delivery of DPB to the vascular compartment by administrating directly DPB and compared it with the sodium salt of DPB. This study compared the pharmacokinetics of DPB after oral administration of DPB (150 mg/kg) and sodium salt of DPB (150 mg/kg) in rats. Fifty-four rats were administered DPB and sodium salt of DPB by a single oral gavage (n=54). Blood samples were obtained (approximately 0.5 mL each) were collected following each treatment from animal via the jugular vein. Blood samplings from groups of 3 rats/sex/time point were collected at various times after dosing, in order to provide the complete time-points of pre-dose, 0, 0.5, 1, 2, 3, 4, 6, 12, 18, 24, 36 and 48 hours after dosing. Each blood sample was collected into a tube containing lithium heparin and the samples were spun in a refrigerated centrifuge. The resultant plasma was stored at −80° C. prior to analysis. DPB was quantified in plasma using HPLC (LLOQ=0.25 μg/mL).
(§3) We calculated AUC0-t for DPB at various times (24, 36 and 48 hours) after oral administrations of DPB and sodium salt of DPB.

Data set [2] has as its system seizure induced either by electroshock or pentylenetetrazole. The following applies: mice, given by stomach tube; cited from earlier work.
Data set [3] is described as follows: Pharmacokinetics of DPB after oral DPB or NaDPB and IV NaDPB in Beagle dogs. The following applies: dog, in vivo, oral 75 mg/kg; for AUC(0-t): Beagle, po, 75 mg/kg. It is filed as in vivo. How it is done:
as §1, §2
We examined the delivery of DPB to the vascular compartment by administrating directly DPB and compared it with the sodium salt of DPB in dogs. This study compared the pharmacokinetics of DPB after oral administration of a single dose of DPB (75 mg/kg) or sodium salt of DPB (75 mg/kg) in Beagle dogs. Twenty-eight Beagle dogs were administered DPB and sodium salt of DPB by a single oral gavage (n=24). Blood samples were obtained pre-dose and 0.5, 1, 2, 3, 4, 6, 12, 18, 24, 36 and 48 hours after dosing. DPB was quantified in plasma using HPLC (LLOQ=0.25 μg/mL).
as §3

Data set [4] is described as follows: Brain concentration of DPB after oral DPB or NaDPB and IV NaDPB in Sprague-Dawley rats. The data set is classed as in vivo. The following applies: male, oral 150 mg/kg, 48 hr. How it is done: In this study, we measured the brain concentration of DPB. Brains were collected as soon as possible after euthanasia from each rat. They were stored in a freezer at −80° C. prior to determination of DPB brain tissue concentrations. Table 6 summarizes the brain concentrations of DPB after oral administration of DPB and sodium salt of DPB in Sprague-Dawley rats.

A short description of another data set: in vivo. The following applies: dog, analyte MMMDPB. As to the method: as §1, §2
Blood samples were obtained pre-dose and 0.25, 0.5, 1, 2, 3, 4, 6, 9, 12, 15, 18, and 24 hours after dosing. Venous blood (˜1 mL) were drawn and collected in lithium heparin (anticoagulant). Blood samples were spun in a refrigerated centrifuge and plasma were stored at −80° C. prior to analysis. […] Calibration curves were obtained using a weighted (1/C^2) least squares linear regression analysis of peak area ratio (analyte/internal standard) versus the nominal concentration of the calibration standards. Concentrations were obtained by interpolation from the run defined calibration curve. Regressions and figures were generated by PE Sciex Analyst Version 1.2 software.
Plasma samples were thawed and subjected to solid phase extraction with 2 mL acetonitrile prior to HPLC method with Tandem Mass Spectrometry Detection. Chromatographic conditions were performed as followed: […]

Setting [5] is: Sprague-Dawley rats, female, analyte DPB in plasma.
The mark [6] stands for this setting: Sprague-Dawley rats, male, analyte DPB in plasma.

Molecules are shown by their SMILES.

The Cmax is the peak of the concentration-time curve. As usually defined, the Tmax is the time from dosing to the highest level. For orientation: half-life means the time needed for the level to fall by half in the phase considered. Turning to `O=C1NC(=O)C(c2ccccc2)(c2ccccc2)C(=O)N1` [DPB, 5,5-diphenyl barbituric acid, reference compound], the AUC(0-t) in data set [1] (female, Sprague-Dawley rats, female, analyte DPB in plasma, read-out: AUC0-t) came to 1950 µg·h/mL; in data set [1] (female, female, analyte DPB, read-out: AUC0-36), 1600 µg·h/mL; in data set [1] (female, female, analyte DPB, read-out: AUC0-48), 1950 µg·h/mL; in data set [1] (male, Sprague-Dawley rats, male, analyte DPB in plasma, read-out: AUC0-t), 776 µg·h/mL; in data set [1] (male, male, analyte DPB, read-out: AUC0-36), 757 µg·h/mL; in data set [1] (male, male, analyte DPB, read-out: AUC0-48) it was 776 µg·h/mL. The AUC(0-t) in data set [3] (analyte DPB in plasma, read-out: AUC0-t) came out at 222 µg·h/mL; in data set [3] (analyte DPB, read-out: AUC0-24), 231 µg·h/mL; in data set [3] (analyte DPB, read-out: AUC0-36), 234 µg·h/mL; in data set [3] (analyte DPB, read-out: AUC0-48), 234 µg·h/mL. Further, the Cmax in data set [1] (setting [5]) worked out at 74000 ng/mL; in data set [1] (setting [6]), 38300 ng/mL; in data set [3] (analyte DPB in plasma) it was 18700 ng/mL. Also, the Tmax in data set [1] (setting [5]) is 12 h; in data set [1] (setting [6]), 6 h; in data set [3] (analyte DPB in plasma), 6.5 h. Further, the half-life is 33.2 h in data set [1] (setting [5]), 6.6 h in data set [1] (setting [6]) and 4 h in data set [3] (analyte DPB in plasma). Besides, the protection from seizure entry in data set [2] is given as “effective”. Besides, in data set [4], the “Mean brain concentration of DPB” value is “BQL”.
With `COCN1C(=O)NC(=O)C(c2ccccc2)(c2ccccc2)C1=O` [MMMDPB, monomethoxymethyl-5,5-diphenyl barbituric acid, reference compound], the bioavailability was 107% in “in vivo” (Beagle, Beagle dogs, oral 30 mg/kg vs IV 15 mg/kg, read-out: F (absolute bioavailability)); 107% in the data set “in vivo” (Beagle, po, 30 mg/kg, mean oral bioavailability of MMMDPB, Beagle dogs, oral 30 mg/kg, mean); 43 to 177% in “in vivo” (Beagle, po, 30 mg/kg, oral bioavailability of MMMDPB, range, Beagle dogs, oral 30 mg/kg, range over animals).
With `COCN1C(=O)NC(=O)C(c2ccccc2)(c2ccccc2)C1=O.[Na]` [NaMMMDPB, sodium monomethoxymethyl-5,5-diphenyl barbiturate], the bioavailability in the data set “in vivo” (in vivo, 30 mg/kg, oral 30 mg/kg vs IV 15 mg/kg, read-out: F (absolute bioavailability)) was 60%; in the data set “in vivo” (in vivo, po, 30 mg/kg, mean oral bioavailability of MMMDPB, oral 30 mg/kg, mean) it was 60%; in “in vivo” (in vivo, po, 30 mg/kg, oral bioavailability of MMMDPB, range, oral 30 mg/kg, range over animals), 34 to 99%.
